Usually melting point stands for the temperature of the solid-liquid transition.

Drawing on US8486996B2, “Aroylfuranes and aroylthiophenes” (Basilea Pharmaceutica AG, priority 2006, dated 2013), this text covers IC50, EC50 and melting point for 5 molecules.

Series [1] concerns tumor cells. Description: MTS proliferation assay (72 h read-out). It counts as cell-based. Put shortly:
(§1)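 Tumour cells (1.5×10^3–10^4 per well) were seeded 24 h before compound addition, then exposed to 0.001–10 μM final compound for 72 h under culture conditions. MTS reagent was added for a further 3 h, absorbance was read at 492 nm, and results were binned into scores A–D.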
Background: Tetrazolium dyes change colour on reduction, which living cells bring about.

The nature of series [2]: MTS proliferation assay (72 h read-out). Particulars: Homo sapiens, MRC5 cells. In kind it is cell-based. Put shortly: as §1
Series [3] has as its system tumor cells. As to the kind of experiment: Hoechst 33342 nuclear staining (48 h read-out). It counts as cell-based. Put shortly:
(§2)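 Adherent cells pre-spread 24 h before dosing, suspension cells dosed at seeding; compounds at 0.001 μM-10 μM final, 48 h at culture conditions. Hoechst 33342 (2-5 μg/ml) added for 30 min, then fluorescence microscopy scoring of apoptotic nuclear fraction and apoptosis-specific morphology, reported as scores A-D.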

Series [4] in a line: Hoechst 33342 nuclear staining (48 h read-out). In kind it is cell-based. An outline of the steps:
as §2

For series [5], the system named is tumor cells. As to the kind of experiment: Mitochondrial membrane potential, JC-1 (read-out 48 h). In kind it is cell-based. Conditions: JC-1, 48 h. Put shortly: (§3)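 Tumor cells were treated with test compounds (adherent cells after 24 h of attachment, suspension cells immediately), medium holding up to 5% DMSO. After 48 h, JC-1 (2-5 μg/ml in added medium) was applied for 30 min. Fluorescence microscopy (FITC/TRITC filters) scored the fraction of cells with dissipated mitochondrial membrane potential as categories A-D.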

Test in series [6]: as above
It counts as cell-based. Conditions: PBL, JC-1, 48 h. An outline of the steps: as §3

Setting [7] is: Homo sapiens, HT-1080, HT1080 cells, read-out: MTS proliferation assay IC50, HT1080.
Setting [8] is: Homo sapiens, HeLa cells, read-out: MTS proliferation assay IC50, HeLa.
Where [9] appears, read: Homo sapiens, Jurkat cells, read-out: MTS proliferation assay IC50, Jurkat.
Where [10] appears, read: Jily cells, read-out: MTS proliferation assay IC50, Jily.
[11] abbreviates: Homo sapiens, HeLa cells, read-out: Hoechst 33342 nuclear staining EC50, HeLa.
Where [12] appears, read: Homo sapiens, Jurkat cells, read-out: Hoechst 33342 nuclear staining EC50, Jurkat.
Where [13] appears, read: Jily cells, read-out: Hoechst 33342 nuclear staining EC50, Jily.
[14] abbreviates: Homo sapiens, MRC5 cells, read-out: Hoechst 33342 nuclear staining EC50, MRC5.
[15] abbreviates: PBL, read-out: Hoechst 33342 nuclear staining EC50, PBL.
[16] abbreviates: Homo sapiens, HeLa cells, read-out: Mitochondrial membrane potential (read-out 48 h) HeLa.
[17] abbreviates: Homo sapiens, Jurkat cells, read-out: Mitochondrial membrane potential (read-out 48 h) Jurkat.
[18] abbreviates: Homo sapiens, MCF7 cells, read-out: Mitochondrial membrane potential (read-out 48 h) MCF7.
[19] abbreviates: Jily cells, read-out: Mitochondrial membrane potential (read-out 48 h) Jily.

Read-outs that look alike come from different tables or passages of the source. Bounds are passed on as bounds.

Regarding `CCOc1ccccc1C(=O)c1oc2nc(C)ccc2c1N` [Example 28], the melting point fell in the range of 156 to 158 °C. For the same molecule, the IC50 in the series with tumor cells [1] (setting [7]) lay within 100 to 1000 nM. Further, the IC50 in the series with tumor cells [1] (setting [8]) was 100 to 1000 nM. In addition, in the series on tumor cells [1] (setting [9]), the IC50 lay in the range of 10 to 100 nM. Further, the IC50 in the series with tumor cells [1] (setting [10]) was 10 to 100 nM. Further, the IC50 in series [2] was 100 to 1000 nM. Moreover, the EC50 in the series on tumor cells [3] (setting [11]) fell in the range of 100 to 1000 nM. Moreover, the EC50 in the series with tumor cells [3] (setting [12]) lay within 10 to 100 nM. For the same molecule, the EC50 in the series on tumor cells [3] (setting [13]) was 10 to 100 nM. Further, the EC50 in series [4] (setting [14]) was over 1000 nM. Further, in series [4] (setting [15]), the EC50 is over 1000 nM. Besides, the EC50 in the series on tumor cells [5] (setting [16]) is 100 to 1000 nM. Further, the EC50 in the series on tumor cells [5] (setting [17]) fell in the range of 10 to 100 nM. Moreover, in the series with tumor cells [5] (setting [18]), the EC50 is over 1000 nM. For the same molecule, the EC50 in the series on tumor cells [5] (setting [19]) lay within 100 to 1000 nM. Further, the EC50 in series [6] was over 1000 nM.
As for `CCOc1ccccc1C(=O)c1sc2ncccc2c1N` [Example 114], the melting point lay in the range of 138 to 142 °C. The IC50 in the series with tumor cells [1] (setting [7]) was over 1000 nM. In the series with tumor cells [1] (setting [8]), the IC50 was over 1000 nM. Moreover, the IC50 with tumor cells [1] (setting [9]) is over 1000 nM. Also, the IC50 with tumor cells [1] (setting [10]) was over 1000 nM. Moreover, the IC50 in series [2] was over 1000 nM. Moreover, in the series with tumor cells [3] (setting [11]), the EC50 is over 1000 nM. Further, the EC50 in the series with tumor cells [3] (setting [12]) is over 1000 nM. Also, the EC50 with tumor cells [3] (setting [13]) is over 1000 nM. In series [4] (setting [14]), the EC50 was over 1000 nM. The EC50 in series [4] (setting [15]) is over 1000 nM. For the same molecule, the EC50 in the series on tumor cells [5] (setting [16]) is over 1000 nM. Further, the EC50 with tumor cells [5] (setting [17]) is over 1000 nM. In addition, the EC50 in the series on tumor cells [5] (setting [18]) was over 1000 nM. Besides, in the series on tumor cells [5] (setting [19]), the EC50 is over 1000 nM. Moreover, the EC50 in series [6] was over 1000 nM.
In turn, `CCOc1ccc(Cl)cc1C(=O)c1oc2ccc(Cl)cc2c1N` [Example 17] showed a melting point of 140 to 142 °C. Further, the IC50 in the series on tumor cells [1] (setting [7]) is under 10 nM. Besides, the IC50 with tumor cells [1] (setting [8]) fell in the range of 10 to 100 nM. For the same molecule, the IC50 in the series on tumor cells [1] (setting [9]) was under 10 nM. Further, the IC50 in the series with tumor cells [1] (setting [10]) is under 10 nM. Besides, the IC50 in series [2] is under 10 nM. Besides, in the series with tumor cells [3] (setting [11]), the EC50 lay in the range of 10 to 100 nM. Further, the EC50 with tumor cells [3] (setting [12]) lay in the range of 10 to 100 nM. The EC50 in the series on tumor cells [3] (setting [13]) lay within 10 to 100 nM. Moreover, the EC50 in series [4] (setting [14]) was in the range of 10 to 100 nM. The EC50 in series [4] (setting [15]) is over 1000 nM. For the same molecule, the EC50 in the series with tumor cells [5] (setting [16]) fell in the range of 10 to 100 nM. Also, the EC50 in the series on tumor cells [5] (setting [17]) is 10 to 100 nM. Further, the EC50 with tumor cells [5] (setting [18]) lay in the range of 10 to 100 nM. In the series with tumor cells [5] (setting [19]), the EC50 lay in the range of 10 to 100 nM. Besides, the EC50 in series [6] is over 1000 nM.
In turn, `Cc1ccc(OC(C)C)c(C(=O)c2oc3ccc(Cl)cc3c2N)c1` [Example 16] yielded a melting point of 110 to 112 °C. The IC50 with tumor cells [1] (setting [7]) is 10 to 100 nM. Also, the IC50 in the series with tumor cells [1] (setting [8]) is 10 to 100 nM. Besides, in the series with tumor cells [1] (setting [9]), the IC50 is under 10 nM. Also, the IC50 in the series on tumor cells [1] (setting [10]) is under 10 nM. The IC50 in series [2] was 10 to 100 nM. Moreover, the EC50 with tumor cells [3] (setting [11]) lay in the range of 10 to 100 nM. For the same molecule, the EC50 in the series on tumor cells [3] (setting [12]) lay in the range of 10 to 100 nM. The EC50 in the series on tumor cells [3] (setting [13]) is 10 to 100 nM. Further, the EC50 in series [4] (setting [14]) lay in the range of 10 to 100 nM. In series [4] (setting [15]), the EC50 was over 1000 nM. Moreover, the EC50 in the series with tumor cells [5] (setting [16]) is 10 to 100 nM. The EC50 in the series with tumor cells [5] (setting [17]) lay within 10 to 100 nM. In the series on tumor cells [5] (setting [18]), the EC50 lay in the range of 10 to 100 nM. Besides, the EC50 in the series with tumor cells [5] (setting [19]) was in the range of 10 to 100 nM. The EC50 in series [6] is over 1000 nM.
`CCOc1c(C)cccc1C(=O)c1oc2ccc(Cl)cc2c1N` [Example 25] came in with a melting point of 54 °C. Besides, the IC50 in the series on tumor cells [1] (setting [7]) is over 1000 nM. The IC50 with tumor cells [1] (setting [8]) is over 1000 nM. Further, in the series on tumor cells [1] (setting [9]), the IC50 fell in the range of 100 to 1000 nM. For the same molecule, the IC50 with tumor cells [1] (setting [10]) was 100 to 1000 nM. Besides, the IC50 in series [2] was over 1000 nM. Further, the EC50 in the series with tumor cells [3] (setting [11]) is over 1000 nM. Further, the EC50 in the series with tumor cells [3] (setting [12]) was 100 to 1000 nM. For the same molecule, in the series on tumor cells [3] (setting [13]), the EC50 fell in the range of 100 to 1000 nM. In addition, the EC50 in series [4] (setting [14]) was over 1000 nM. Moreover, in series [4] (setting [15]), the EC50 is over 1000 nM. In the series with tumor cells [5] (setting [16]), the EC50 is over 1000 nM. Further, the EC50 in the series with tumor cells [5] (setting [17]) lay within 100 to 1000 nM. Further, the EC50 with tumor cells [5] (setting [18]) is over 1000 nM. Also, in the series on tumor cells [5] (setting [19]), the EC50 is 100 to 1000 nM. Further, in series [6], the EC50 was over 1000 nM.
